The source of these data is US20050208084A1, “Use of alkylamidomandelates as flavourings” (priority 2002, published 2005).

Data set [1] can be described thus: Tasting the mandelic acid alkylamides (sensory panel, ethanolic solution diluted in 11% sugar solution, swallowed). As to conditions: for estimation of pungency: scale of 1 (very weak) to 9 (very strong), 6-8 testers. The format is in vivo. The protocol: The substance to be tasted is dissolved in ethanol and the ethanolic solution is then diluted with an 11% sugar solution (final concentration: c). For tasting, in each case approximately 5 ml of the sugar solution are swallowed. If the threshold value of the substance is known, a value just above the threshold value is chosen for the tasting. A group of 6-8 testers tasted the solutions.
Where possible, the impression of pungency was estimated on a scale of 1 (very weak) to 9 (very strong).

The conditions of data set [2]: cited from earlier work.

Regarding `COc1cc(CNC(=O)CCCCCCC(C)C)ccc1O` [Dihydrocapsaicin, reference compound], the taste profile result in data set [1] (100 ppb in 11% sugar solution) is listed as “slightly delayed onset of effect in pharyngeal cavity, burning, aggressive, no development of heat”.

As to `COc1cc(CNC(=O)CCCC/C=C/C(C)C)ccc1O` [Capsaicin, N-(4-hydroxy-3-methoxybenzyl)-8-methyl-(6E)-nonenoamide], the “damage occurring in the case of frequent use and overdose” value in data set [2] (frequent use and overdose) was “chronic gastritis, kidney and liver damage”. For the same molecule, the LD50 in data set [2] (mouse oral) was 47 mg.

`CCCCCCCCNC(=O)C(O)c1ccc(OC)c(O)c1` (centres unmarked) [no. 6, 2-(3-Hydroxy-4-methoxyphenyl)-2-hydroxy-N-octylacetamide]: in data set [1] (1 ppm in 11% sugar solution), the taste profile entry was “slightly pungent, particularly on the tongue, slight tingling, rapidly disappears again” and the estimation of pungency was 3.

As to `CCCCCCCCNC(=O)C(O)c1ccc(O)c(OC)c1` (centres unmarked) [no. 9, 2-(4-Hydroxy-3-methoxyphenyl)-2-hydroxy-N-octylacetamide], in data set [1] (1 ppm in 11% sugar solution), the taste profile entry is “no pungency initially, develops suddenly, very intense and long-lasting, ginger pungency”; the estimation of pungency is 8.

Take `CCCCCCCCC(=O)NCc1ccc(O)c(OC)c1` [N-(3-methoxy-4-hydroxybenzyl)nonanoamide, reference compound]: the taste profile entry in data set [1] (200 ppb in 11% sugar solution) is listed as “slightly delayed onset of effect in pharyngeal cavity, little pungency on the tongue, stinging, no development of heat”.

As for `CCCCCCCCNC(=O)C(O)c1ccc(O)c(O)c1` (centres unmarked) [no. 4, 2-(3,4-Dihydroxyphenyl)-2-hydroxy-N-octylacetamide], in data set [1] (10 ppm in 11% sugar solution), the taste profile entry was “pungency develops slowly; stinging, rough, slightly spicy” and the estimation of pungency is listed as 5.

Regarding `CCCCCCCNC(=O)C(O)c1ccc(O)c(OC)c1` (centres unmarked) [no. 8, 2-(4-Hydroxy-3-methoxyphenyl)-2-hydroxy-N-heptylacetamide], in data set [1] (10 ppm in 11% sugar solution), the taste profile entry is reported as “pungency develops; burning, slightly over-ripe” and the estimation of pungency is on record as 7.

In the case of `CCCCCCCCCNC(=O)C(O)c1ccc(O)c(OC)c1` (centres unmarked) [no. 10, 2-(4-Hydroxy-3-methoxyphenyl)-2-hydroxy-N-nonylacetamide], in data set [1] (10 ppm in 11% sugar solution), the taste profile entry is reported as “immediate onset of pungency; similar to capsaicin” and the estimation of pungency is reported as 8.
